Active and inactive are the calls of the source.
Assays:
Caspase-6 = target: T1, Caspase-6 (Homo sapiens, UniProt P55212); test: inhibition of CASP6 peptide cleavage – biochemical, VEID-R110 fluorescence, cherry-pick, dose response (AID 720632)
T1 sequence (P55212 whole entry): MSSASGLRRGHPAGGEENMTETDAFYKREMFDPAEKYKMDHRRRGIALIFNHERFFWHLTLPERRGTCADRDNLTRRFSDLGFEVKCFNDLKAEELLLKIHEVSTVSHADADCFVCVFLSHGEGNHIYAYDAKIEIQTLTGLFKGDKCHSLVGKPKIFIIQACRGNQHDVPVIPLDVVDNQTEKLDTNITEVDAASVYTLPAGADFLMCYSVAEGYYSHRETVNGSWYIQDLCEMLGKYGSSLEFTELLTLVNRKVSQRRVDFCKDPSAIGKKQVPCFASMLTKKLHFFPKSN

cells [1] = assay type: functional, cell-based
cells [2] = assay type: functional, cell-based; remark: listed apart in the source
[3] = target: Glucose-6-phosphate 1-dehydrogenase (Homo sapiens, UniProt P11413); test: inhibition of Homo sapiens G6PD, dose series – biochemical, fluorescence, selectivity assay for P. falciparum G6PD inhibitor project, dose response (AID 504792); assay type: functional
[4] = blockers of HIV-1 ZM109 envelope-driven cell-cell fusion – HeLa effector, CEM target cells, luciferase, cherry-pick, dose response (AID 652058); assay type: functional, cell-based;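 further: luciferase signal from HIV-1 Env mediated cell-cell fusion of effector and target cells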
[5] = HIV-1 AD8 envelope cell-cell fusion blockers – cherry-pick, dose response (AID 652062); assay type: functional, cell-based;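 further: luciferase signal from cell-cell fusion driven by HIV-1 clade B AD8 Env; potency is for inhibitors of fusion seen as a drop in luminescence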
[6] = microbe, parasite or virus in culture; assay type: functional; conditions: Mycobacterium tuberculosis
[7] = target: Ras and Rab interactor 1/Tyrosine-protein kinase ABL1 (Homo sapiens, UniProt P00519+Q13671); assay type: functional;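 further: biochemical TR-FRET dose-response test measuring inhibition of binding between Rin1 and Abl proteins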
Cytochrome P450 2C19 = Cytochrome P450 2C19 (Homo sapiens, UniProt P33261); test: Cytochrome panel assay with activity outcomes. Panel member name: p450-cyp2c19 Compounds with AC50 equal or less than 10 uM are considered active; assay type: functional; conditions: read-out: AC50
Cytochrome P450 2C9 = Cytochrome P450 2C9 (Homo sapiens, UniProt P11712)
BJ [8] = test: cells; assay type: functional, cell-based; conditions: Homo sapiens
[9] = DRD fibroblast viability loss – cell-based, non-viral oncogenic, luminescence, dose response (AID 1934); assay type: functional; conditions: Homo sapiens
BJ [10] = test: BJ-TERT fibroblast viability loss – cell-based, RAS-independent, luminescence, dose response (AID 1933); assay type: functional; conditions: Homo sapiens
BJ [11] = test: BJ-TERT-LT-ST fibroblast viability loss – cell-based, RAS-independent, luminescence, dose response (AID 1935); assay type: functional; conditions: Homo sapiens;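 further: BJ fibroblasts immortalized with TERT plus LT and ST oncogenes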
[12] = target: Glyceraldehyde-3-phosphate dehydrogenase (Homo sapiens, UniProt P04406)
[13] = A549 cell cytotoxicity, dose response, cytotoxicity control, plate reader, cherry-pick, antagonist series (AID 743412); assay type: functional, cell-based
[14] = blockers of bursicon-stimulated LGR2 cAMP reporter – cell-based, HEK293, CRE-luciferase reporter, cherry pick, set 2, dose response (AID 743343); assay type: functional;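 further: transfected cells were stimulated with diluted bursicon conditioned medium after compound addition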
[15] = target: T2, Heat shock factor protein 1 (Mus musculus, UniProt P38532); test: decrease of HSF1-responsive luciferase luminescence – cell-based, NIH3T3, dose retest, confirmation (AID 2382); assay type: functional;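 further: NIH3T3 fibroblasts with HSF1-driven luciferase reporter stressed by proteasome inhibitor MG132; luminescence from HSF1-driven luciferase expression after 8 hours of MG132 stress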
T2 sequence (P38532 whole entry): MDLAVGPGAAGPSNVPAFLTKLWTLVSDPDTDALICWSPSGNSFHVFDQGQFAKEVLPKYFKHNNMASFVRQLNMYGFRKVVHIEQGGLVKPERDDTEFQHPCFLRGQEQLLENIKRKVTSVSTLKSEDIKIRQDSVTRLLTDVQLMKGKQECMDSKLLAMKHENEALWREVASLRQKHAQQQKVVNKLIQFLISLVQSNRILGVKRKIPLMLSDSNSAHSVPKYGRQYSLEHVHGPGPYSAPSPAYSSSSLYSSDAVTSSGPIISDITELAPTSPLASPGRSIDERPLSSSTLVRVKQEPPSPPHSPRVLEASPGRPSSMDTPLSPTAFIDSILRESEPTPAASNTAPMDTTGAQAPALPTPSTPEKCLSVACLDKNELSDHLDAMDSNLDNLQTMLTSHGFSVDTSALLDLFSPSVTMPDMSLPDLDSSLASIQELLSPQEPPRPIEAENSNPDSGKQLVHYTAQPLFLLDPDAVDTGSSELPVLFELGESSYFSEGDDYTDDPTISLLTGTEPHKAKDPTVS

[16] = viability loss in HEK293 cells – cell-based, plate reader, cherry-picked samples, cytotoxicity control, dose response (AID 743446); assay type: functional
[17] = blockade of melanocortin 4 receptor signaling – cell-based, plate reader, cherry pick, counter-screen for LGR2 antagonist project, dose response (AID 743444); assay type: functional;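 further: transfected HEK 293 cells stimulated with alpha-MSH peptide; potency of inhibitors of the alpha-MSH evoked signal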
[18] = reduction of Shn3 3'UTR-driven luciferase in osteoblasts – cell-based, Clone20 osteoblasts, firefly luciferase, cherry-picked, dose response (AID 624132); assay type: functional;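 further: firefly luciferase luminescence from reporter carrying the Shn3 3'UTR in osteoblasts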
[19] = toxicity toward HepG2 liver cells – cell-based, plate reader, cherry-pick, antagonist series, cytotoxicity control, dose response (AID 743416); assay type: functional
[20] = target: Eukaryotic translation initiation factor 4E (Mus musculus, UniProt P63073); test: blockers of eIF4G binding by eIF4E – biochemical, TR-FRET, dose response (AID 855); assay type: functional;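 further: potency for disrupting eIF4E binding to eIF4GI seen as loss of FRET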
Cytochrome P450 3A4 = Cytochrome P450 3A4 (Homo sapiens, UniProt P08684);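 further: CYP3A4 tested as one member of a cytochrome P450 panel screen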
Cytochrome P450 2D6 = Cytochrome P450 2D6 (Homo sapiens, UniProt P10635);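 further: CYP2D6 member of a cytochrome P450 panel assay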
Chain of Cytochrome P450 2D6 (P10635 whole entry): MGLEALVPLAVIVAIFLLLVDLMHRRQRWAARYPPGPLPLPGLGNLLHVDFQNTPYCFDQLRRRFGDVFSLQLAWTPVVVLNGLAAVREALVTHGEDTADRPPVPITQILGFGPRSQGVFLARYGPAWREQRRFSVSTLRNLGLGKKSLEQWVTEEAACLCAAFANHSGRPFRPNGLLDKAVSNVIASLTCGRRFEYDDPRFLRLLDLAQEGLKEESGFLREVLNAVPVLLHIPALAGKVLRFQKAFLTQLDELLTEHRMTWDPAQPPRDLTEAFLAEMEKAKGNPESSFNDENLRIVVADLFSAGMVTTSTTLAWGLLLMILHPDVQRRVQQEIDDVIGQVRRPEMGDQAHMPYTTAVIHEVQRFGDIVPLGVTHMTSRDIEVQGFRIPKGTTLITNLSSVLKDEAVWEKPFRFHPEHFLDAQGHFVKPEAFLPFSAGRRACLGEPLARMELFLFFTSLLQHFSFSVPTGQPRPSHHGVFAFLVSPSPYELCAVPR

Chain of Cytochrome P450 2C9 (P11712 whole entry): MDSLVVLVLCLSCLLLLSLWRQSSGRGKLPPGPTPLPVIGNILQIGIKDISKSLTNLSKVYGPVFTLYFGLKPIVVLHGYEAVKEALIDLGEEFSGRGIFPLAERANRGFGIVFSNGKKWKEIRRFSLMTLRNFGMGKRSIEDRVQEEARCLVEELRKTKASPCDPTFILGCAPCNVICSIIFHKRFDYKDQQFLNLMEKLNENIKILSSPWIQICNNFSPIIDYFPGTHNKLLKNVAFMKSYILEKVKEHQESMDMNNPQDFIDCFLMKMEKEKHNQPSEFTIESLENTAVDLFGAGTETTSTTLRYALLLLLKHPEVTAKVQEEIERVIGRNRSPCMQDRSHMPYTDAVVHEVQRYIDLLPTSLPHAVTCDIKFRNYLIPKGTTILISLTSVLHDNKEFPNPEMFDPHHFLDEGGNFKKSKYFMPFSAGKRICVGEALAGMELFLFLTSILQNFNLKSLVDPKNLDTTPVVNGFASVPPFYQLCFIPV
Chain of Glucose-6-phosphate 1-dehydrogenase (P11413 whole entry, the tested form may be a part): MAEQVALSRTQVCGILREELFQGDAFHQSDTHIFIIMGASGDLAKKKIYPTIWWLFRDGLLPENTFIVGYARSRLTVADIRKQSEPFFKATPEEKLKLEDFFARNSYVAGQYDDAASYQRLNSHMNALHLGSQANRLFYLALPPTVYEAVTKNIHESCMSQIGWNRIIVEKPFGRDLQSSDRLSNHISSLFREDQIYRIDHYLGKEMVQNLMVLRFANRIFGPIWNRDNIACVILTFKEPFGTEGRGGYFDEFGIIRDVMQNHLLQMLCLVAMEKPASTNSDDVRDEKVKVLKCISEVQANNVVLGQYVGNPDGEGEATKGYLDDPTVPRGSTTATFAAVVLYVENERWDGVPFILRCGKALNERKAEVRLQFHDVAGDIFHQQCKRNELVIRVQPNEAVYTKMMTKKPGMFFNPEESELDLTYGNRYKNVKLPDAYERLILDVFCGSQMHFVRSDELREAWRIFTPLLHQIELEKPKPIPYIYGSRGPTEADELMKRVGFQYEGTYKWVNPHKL
Chain of Cytochrome P450 2C19 (P33261 whole entry): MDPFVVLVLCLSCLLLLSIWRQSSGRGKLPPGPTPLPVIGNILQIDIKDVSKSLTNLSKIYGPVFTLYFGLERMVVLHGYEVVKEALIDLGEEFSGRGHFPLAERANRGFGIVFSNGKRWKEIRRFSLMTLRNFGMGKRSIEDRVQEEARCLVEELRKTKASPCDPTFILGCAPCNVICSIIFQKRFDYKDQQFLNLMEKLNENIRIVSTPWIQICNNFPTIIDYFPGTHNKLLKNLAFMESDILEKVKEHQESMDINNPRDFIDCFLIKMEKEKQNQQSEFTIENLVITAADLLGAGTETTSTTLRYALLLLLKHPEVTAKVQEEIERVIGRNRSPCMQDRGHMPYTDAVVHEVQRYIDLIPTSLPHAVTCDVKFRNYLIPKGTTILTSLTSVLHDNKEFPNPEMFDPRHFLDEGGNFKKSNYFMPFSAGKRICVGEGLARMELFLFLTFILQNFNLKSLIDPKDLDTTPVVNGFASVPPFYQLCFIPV
Chain of Eukaryotic translation initiation factor 4E (P63073 whole entry): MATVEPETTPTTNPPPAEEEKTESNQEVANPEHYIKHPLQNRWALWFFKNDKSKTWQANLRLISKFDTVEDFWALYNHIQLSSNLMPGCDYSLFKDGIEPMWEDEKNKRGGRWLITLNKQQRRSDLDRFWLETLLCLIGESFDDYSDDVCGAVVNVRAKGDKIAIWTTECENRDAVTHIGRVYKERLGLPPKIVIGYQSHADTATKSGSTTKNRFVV
Chain of Glyceraldehyde-3-phosphate dehydrogenase (P04406 whole entry): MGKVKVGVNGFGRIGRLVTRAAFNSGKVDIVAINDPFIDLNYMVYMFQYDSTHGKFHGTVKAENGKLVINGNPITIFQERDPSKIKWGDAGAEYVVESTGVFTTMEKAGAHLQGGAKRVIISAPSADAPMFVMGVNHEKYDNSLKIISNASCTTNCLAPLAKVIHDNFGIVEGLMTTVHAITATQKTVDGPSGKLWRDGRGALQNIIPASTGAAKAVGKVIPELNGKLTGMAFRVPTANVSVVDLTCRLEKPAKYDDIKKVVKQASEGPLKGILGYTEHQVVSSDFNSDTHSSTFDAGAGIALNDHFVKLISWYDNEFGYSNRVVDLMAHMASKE
Chain of Cytochrome P450 3A4 (P08684 whole entry): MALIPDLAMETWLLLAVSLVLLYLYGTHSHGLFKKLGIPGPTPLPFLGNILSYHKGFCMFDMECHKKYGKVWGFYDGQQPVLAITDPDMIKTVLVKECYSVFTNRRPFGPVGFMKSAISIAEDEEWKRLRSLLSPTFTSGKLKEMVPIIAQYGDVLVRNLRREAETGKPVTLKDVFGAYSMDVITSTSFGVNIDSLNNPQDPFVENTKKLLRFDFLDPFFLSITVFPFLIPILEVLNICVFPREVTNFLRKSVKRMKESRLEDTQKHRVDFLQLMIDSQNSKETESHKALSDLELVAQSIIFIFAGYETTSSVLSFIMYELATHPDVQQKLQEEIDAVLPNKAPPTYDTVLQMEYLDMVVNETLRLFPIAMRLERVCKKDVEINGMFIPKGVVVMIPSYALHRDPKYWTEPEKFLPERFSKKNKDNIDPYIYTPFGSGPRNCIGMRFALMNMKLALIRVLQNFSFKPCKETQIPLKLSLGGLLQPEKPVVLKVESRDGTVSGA
Chain of Ras and Rab interactor 1/Tyrosine-protein kinase ABL1 (P00519 whole entry): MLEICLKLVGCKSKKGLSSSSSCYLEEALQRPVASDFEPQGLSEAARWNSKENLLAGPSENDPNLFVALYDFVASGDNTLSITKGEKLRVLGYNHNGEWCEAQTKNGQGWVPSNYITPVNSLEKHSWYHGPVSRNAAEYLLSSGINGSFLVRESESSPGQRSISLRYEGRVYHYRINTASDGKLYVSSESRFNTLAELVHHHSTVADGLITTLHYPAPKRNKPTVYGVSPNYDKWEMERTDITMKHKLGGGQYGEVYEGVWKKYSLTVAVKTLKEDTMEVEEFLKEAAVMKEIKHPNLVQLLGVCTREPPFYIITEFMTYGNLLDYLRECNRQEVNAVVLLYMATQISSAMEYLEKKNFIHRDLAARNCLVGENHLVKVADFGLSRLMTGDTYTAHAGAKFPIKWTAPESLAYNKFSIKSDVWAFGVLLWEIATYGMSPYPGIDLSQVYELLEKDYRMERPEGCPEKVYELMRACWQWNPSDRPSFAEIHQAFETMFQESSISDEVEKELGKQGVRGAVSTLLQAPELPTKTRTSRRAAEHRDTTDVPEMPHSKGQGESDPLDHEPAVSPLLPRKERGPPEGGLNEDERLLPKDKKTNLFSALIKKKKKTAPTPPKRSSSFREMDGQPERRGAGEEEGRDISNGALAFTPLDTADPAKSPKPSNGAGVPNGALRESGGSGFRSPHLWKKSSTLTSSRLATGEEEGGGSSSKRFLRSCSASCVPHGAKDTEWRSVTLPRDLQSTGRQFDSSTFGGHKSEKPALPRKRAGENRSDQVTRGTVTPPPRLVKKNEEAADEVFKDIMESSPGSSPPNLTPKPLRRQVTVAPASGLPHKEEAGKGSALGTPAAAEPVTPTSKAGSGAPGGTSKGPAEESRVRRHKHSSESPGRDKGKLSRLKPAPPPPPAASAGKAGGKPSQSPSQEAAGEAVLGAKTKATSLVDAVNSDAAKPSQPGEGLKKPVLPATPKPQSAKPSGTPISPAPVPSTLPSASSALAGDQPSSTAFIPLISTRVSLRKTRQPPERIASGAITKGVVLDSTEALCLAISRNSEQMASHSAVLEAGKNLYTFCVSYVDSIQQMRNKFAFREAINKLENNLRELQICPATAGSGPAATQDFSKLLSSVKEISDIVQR
Chain of Ras and Rab interactor 1/Tyrosine-protein kinase ABL1 (Q13671 whole entry): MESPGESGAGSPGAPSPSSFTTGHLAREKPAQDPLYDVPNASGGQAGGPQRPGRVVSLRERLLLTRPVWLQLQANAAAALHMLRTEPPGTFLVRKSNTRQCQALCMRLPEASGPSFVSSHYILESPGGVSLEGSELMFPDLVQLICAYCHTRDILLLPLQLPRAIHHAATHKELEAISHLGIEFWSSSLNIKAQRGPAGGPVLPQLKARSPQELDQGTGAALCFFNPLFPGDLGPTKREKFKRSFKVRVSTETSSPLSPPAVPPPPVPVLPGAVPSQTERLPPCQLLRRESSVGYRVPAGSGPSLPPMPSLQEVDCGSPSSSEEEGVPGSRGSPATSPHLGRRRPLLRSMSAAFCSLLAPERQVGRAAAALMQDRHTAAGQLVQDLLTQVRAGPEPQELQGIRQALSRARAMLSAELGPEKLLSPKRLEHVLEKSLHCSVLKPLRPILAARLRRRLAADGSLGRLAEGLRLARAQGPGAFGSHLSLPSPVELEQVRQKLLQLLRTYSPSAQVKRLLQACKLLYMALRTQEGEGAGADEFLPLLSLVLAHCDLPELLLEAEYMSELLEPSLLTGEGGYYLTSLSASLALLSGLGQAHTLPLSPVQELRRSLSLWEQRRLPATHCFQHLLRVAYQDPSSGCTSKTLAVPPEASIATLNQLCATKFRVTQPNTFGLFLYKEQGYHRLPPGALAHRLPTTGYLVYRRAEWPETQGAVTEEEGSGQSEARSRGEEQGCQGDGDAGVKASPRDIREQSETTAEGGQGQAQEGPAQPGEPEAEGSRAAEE

O=[N+]([O-])c1ccc(F)c2c(O)[nH]nc12
AC50 (Caspase-6): 6.73 µM (active)

Cc1noc(C(=O)Nc2sc3c(c2C#N)CCC3)c1Cl
EC50 (cells [1]): > 350 µM (not active)
EC50 (cells [2]): 57 µM (active)
IC50 [3]: 47.5 µM (inactive)

COc1ccc(NC(=O)c2ccc(Cl)c(S(=O)(=O)N3CCc4ccccc4C3)c2)cn1
AC50 [4]: 1.95 µM (active)
AC50 [5]: 19.4 µM (active)
CC50 [6]: > 40 µM (active)

COc1ccc(CN(C)CCCn2ccc(NC(=O)OCc3ccccc3)nc2=O)cc1OC
IC50 [7]: 23.5 µM (inactive)

CCOc1ccc(NC(=O)Cn2nnc(C(=O)NCc3ccccc3OC)c2N)cc1
AC50 (Cytochrome P450 2C19): 5.01 µM (inconclusive)
AC50 (Cytochrome P450 2C9): inconclusive

COc1ccc2c(-c3cc4ccc(OCc5ccc(F)cc5)cc4oc3=O)cc(=O)oc2c1
EC50 (BJ [8]): > 150 µM (not active)
EC50 [9]: 8.57 µM (active)
EC50 (BJ [10]): 3.13 µM (active)
EC50 (BJ [11]): 7.45 µM (inconclusive)

COc1ccccc1CN(C)C(=O)CN1CCN(C(=O)c2cccs2)CC1
AC50 [4]: 32.8 µM (active)

COc1cc(S(=O)(=O)Nc2cccnc2)c(OC)cc1Br
IC50 [12]: > 100 µM (not active)

COc1ccc(-c2nsc3c(N4CCCCC4C)ncnc23)cc1 (stereo not drawn)
AC50 [13]: > 52 µM (inactive)
AC50 [14]: 0.135 µM (active)
EC50 [15]: < 0.16 µM (active)
AC50 [16]: > 52 µM (inactive)
AC50 [17]: 0.134 µM (active)
AC50 [18]: < 0.26 µM (active)
AC50 [19]: > 52 µM (inactive)

CCSc1nc2cc(S(=O)(=O)N3CCOCC3)ccc2o1
IC50 [3]: > 80 µM (inactive)

COc1ccc(NC(=S)NC2CCS(=O)(=O)C2)cc1 (stereo not drawn)
IC50 [20]: > 64 µM (inactive)

O=C1c2ccccc2C(=O)N1Cc1cc(-c2ccccc2Cl)no1
AC50 (Cytochrome P450 3A4): 39.8 µM (inconclusive)
AC50 (Cytochrome P450 2D6): 3.16 µM (inconclusive)
AC50 (Cytochrome P450 2C9): inconclusive

[O-][N+](=Cc1ccccc1)c1ccc(Cl)cc1
IC50 [3]: 57 µM (inactive)

COc1ccc(Cl)cc1NC(=O)CN1C(=O)CSC1=O
AC50 (Cytochrome P450 2C19): 39.8 µM (inconclusive)
AC50 (Cytochrome P450 2D6): 5.62 µM (inconclusive)
AC50 (Cytochrome P450 2C9): inconclusive

Cc1c(NC(=O)c2cc(CC(C)C)on2)c(=O)n(-c2ccccc2)n1C
IC50 [20]: > 64 µM (inactive)
